Measured values from article PMC8668980, “Development of a versatile HPLC-based method to evaluate the activation status of small GTPases” (The Journal of Biological Chemistry, 2021).

How the values were obtained:
Flag-RHEB [1] = target: T1, Flag-RHEB (Homo sapiens, UniProt Q15382); experiment: IP-RP-HPLC of nucleotide co-purified with Flag protein from HeLa; type: cell-based; conditions: nucleotide loaded in cells; 5 mM then 1 mM MgCl2 washes
T1 construct: Flag-tagged, dox-inducible in HeLa, anti-Flag immunopurified

GST-RHEB [2] = target: T2, GST-RHEB (Homo sapiens, UniProt Q15382, P37L); experiment: [3H]GDP-dissociation assay, filter binding; conditions: labelled compound; 5 μM [3H]GDP preload with 10 mM EDTA, chase 200 μM GTPγS; 5 mM MgCl2, pH 7.5, 30 °C
T2 construct: residues 1-180, N-terminal GST fusion (pCold GST) kept, E. coli, glutathione-Sepharose purified

HRAS = target: T3, HRAS (Homo sapiens, UniProt P01112); experiment: IP-RP-HPLC of nucleotide co-purified with Flag protein from HeLa; type: cell-based; conditions: nucleotide loaded in cells; 5 mM then 1 mM MgCl2 washes
T3 construct: Flag-tagged, dox-inducible in HeLa, anti-Flag immunopurified

DIRAS2 = target: T4, DIRAS2 (Homo sapiens, UniProt Q96HU8); experiment: as above; type: cell-based; conditions: nucleotide loaded in cells; 5 mM then 1 mM MgCl2 washes
T4 construct: Flag-tagged, dox-inducible in HeLa, anti-Flag immunopurified
T4 sequence (Q96HU8 1-196): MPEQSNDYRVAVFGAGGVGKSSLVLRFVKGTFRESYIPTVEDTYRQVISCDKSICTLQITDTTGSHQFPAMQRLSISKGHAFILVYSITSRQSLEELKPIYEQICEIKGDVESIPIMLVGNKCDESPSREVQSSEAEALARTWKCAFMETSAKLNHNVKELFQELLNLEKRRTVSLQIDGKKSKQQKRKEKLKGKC

DIRAS1 = target: T5, DIRAS1 (Homo sapiens, UniProt O95057); experiment: as above; type: cell-based; conditions: nucleotide loaded in cells; 5 mM then 1 mM MgCl2 washes
T5 construct: Flag-tagged, dox-inducible in HeLa, anti-Flag immunopurified
T5 sequence (O95057 1-195): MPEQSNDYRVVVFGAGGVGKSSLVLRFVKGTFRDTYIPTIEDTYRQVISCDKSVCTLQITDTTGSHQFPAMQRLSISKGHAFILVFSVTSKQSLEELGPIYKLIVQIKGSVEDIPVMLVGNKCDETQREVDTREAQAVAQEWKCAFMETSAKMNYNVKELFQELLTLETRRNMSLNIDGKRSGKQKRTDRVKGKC

GST-RHEB [3] = target: T6, GST-RHEB (Homo sapiens, UniProt Q15382); experiment: [3H]GDP-dissociation assay, filter binding; conditions: labelled compound; 5 μM [3H]GDP preload with 10 mM EDTA, chase 200 μM GTPγS; 5 mM MgCl2, pH 7.5, 30 °C
T6 construct: residues 1-180, N-terminal GST fusion (pCold GST) kept, E. coli, glutathione-Sepharose purified

Flag-RHEB [4] = target: T7, Flag-RHEB (Homo sapiens, UniProt Q15382, Q64L); experiment: IP-RP-HPLC of nucleotide co-purified with Flag protein from HeLa; type: cell-based; conditions: nucleotide loaded in cells; 5 mM then 1 mM MgCl2 washes
T7 construct: Flag-tagged, dox-inducible in HeLa, anti-Flag immunopurified

Flag-RHEB [5] = target: T8, Flag-RHEB (Homo sapiens, UniProt Q15382, S68P); experiment: as above; type: cell-based; conditions: nucleotide loaded in cells; 5 mM then 1 mM MgCl2 washes
T8 construct: Flag-tagged, dox-inducible in HeLa, anti-Flag immunopurified

GST-RHEB [6] = target: T9, GST-RHEB (Homo sapiens, UniProt Q15382, S68P); experiment: single-turnover GTPase assay of bound GTP by IP-RP-HPLC; type: biochemical; conditions: Flag-TSC1/2 beads (GAP); 5 mM MgCl2, pH 7.5, 30 °C
T9 construct: residues 1-180, N-terminal GST fusion (pCold GST) kept, E. coli, glutathione-Sepharose purified

Flag-RHEB [7] = target: T10, Flag-RHEB (Homo sapiens, UniProt Q15382, P37L); experiment: IP-RP-HPLC of nucleotide co-purified with Flag protein from HeLa; type: cell-based; conditions: nucleotide loaded in cells; 5 mM then 1 mM MgCl2 washes
T10 construct: Flag-tagged, dox-inducible in HeLa, anti-Flag immunopurified

GST-RHEB [8] = target: T6, GST-RHEB; experiment: […]GTPγS filter binding time course; conditions: labelled compound; 5 μM [35S]GTPγS, 5 mM MgCl2, pH 7.5, 30 °C

T6 sequence (Q15382 1-180): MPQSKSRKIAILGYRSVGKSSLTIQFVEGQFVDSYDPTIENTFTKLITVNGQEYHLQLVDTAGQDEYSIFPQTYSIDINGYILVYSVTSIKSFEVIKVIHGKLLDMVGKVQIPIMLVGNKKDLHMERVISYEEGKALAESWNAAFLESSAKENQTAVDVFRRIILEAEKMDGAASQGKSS
T3 sequence (P01112 2-186): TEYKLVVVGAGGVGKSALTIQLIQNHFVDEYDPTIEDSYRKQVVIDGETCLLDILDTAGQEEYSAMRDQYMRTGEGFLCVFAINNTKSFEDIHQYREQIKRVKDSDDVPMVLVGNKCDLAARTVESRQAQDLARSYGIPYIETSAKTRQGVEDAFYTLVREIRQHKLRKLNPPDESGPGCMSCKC
T9 sequence (Q15382 1-180 S68P): as the sequence (Q15382 1-180) above, with S68P counted along it
T2 sequence (Q15382 1-180 P37L): as the sequence (Q15382 1-180) above, with P37L counted along it
T1 sequence (Q15382 1-181): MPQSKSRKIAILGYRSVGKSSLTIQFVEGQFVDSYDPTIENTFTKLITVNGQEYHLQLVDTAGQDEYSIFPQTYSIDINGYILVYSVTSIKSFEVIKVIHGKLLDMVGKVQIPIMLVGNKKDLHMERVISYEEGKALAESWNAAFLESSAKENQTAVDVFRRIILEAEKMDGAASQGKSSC
T7 sequence (Q15382 1-181 Q64L): as the sequence (Q15382 1-181) above, with Q64L counted along it
T10 sequence (Q15382 1-181 P37L): as the sequence (Q15382 1-181) above, with P37L counted along it
T8 sequence (Q15382 1-181 S68P): as the sequence (Q15382 1-181) above, with S68P counted along it

Structure (SMILES) | IP-RP-HPLC of nucleotide co-purified with Flag protein from HeLa (Flag-RHEB [1]) | [3H]GDP-dissociation assay, filter binding (GST-RHEB [2]) | IP-RP-HPLC of nucleotide co-purified with Flag protein from HeLa (HRAS) | IP-RP-HPLC of nucleotide co-purified with Flag protein from HeLa (DIRAS2) | IP-RP-HPLC of nucleotide co-purified with Flag protein from HeLa (DIRAS1) | [3H]GDP-dissociation assay, filter binding (GST-RHEB [3]) | IP-RP-HPLC of nucleotide co-purified with Flag protein from HeLa (Flag-RHEB [4]) | IP-RP-HPLC of nucleotide co-purified with Flag protein from HeLa (Flag-RHEB [5]) | single-turnover GTPase assay of bound GTP by IP-RP-HPLC (GST-RHEB [6]) | IP-RP-HPLC of nucleotide co-purified with Flag protein from HeLa (Flag-RHEB [7]) | [35S]GTPγS filter binding time course (GST-RHEB [8])
Nc1nc2c(ncn2[C@@H]2O[C@H](COP(=O)(O)OP(=O)(O)O)[C@@H](O)[C@H]2O)c(=O)[nH]1 [GDP] | Representative chromatogram of guanine nucleotides bound to Flag-RHEB/WT in HeLa cells | the dissociation rates of the WT and P37L proteins were comparable | We could reproducibly quantify the amount of GDP and GTP bound to each small GTPase | We could reproducibly quantify the amount of GDP and GTP bound to each small GTPase | We could reproducibly quantify the amount of GDP and GTP bound to each small GTPase | the dissociation rates of the WT and P37L proteins were comparable | – | – | – | – | –
Nc1nc2c(ncn2[C@@H]2O[C@H](COP(=O)(O)OP(=O)(O)OP(=O)(O)O)[C@@H](O)[C@H]2O)c(=O)[nH]1 [GTP] | – | – | We could reproducibly quantify the amount of GDP and GTP bound to each small GTPase | We could reproducibly quantify the amount of GDP and GTP bound to each small GTPase | We could reproducibly quantify the amount of GDP and GTP bound to each small GTPase | – | marked increase in the ratio of the GTP-bound form of RHEB/Q64L compared with RHEB/WT | both RHEB/P37L and RHEB/S68P showed increases in their GTP-bound forms | it weakly but significantly promoted that of GST-RHEB/S68P | both RHEB/P37L and RHEB/S68P showed increases in their GTP-bound forms | –
Nc1nc2c(ncn2[C@@H]2O[C@H](COP(=O)(O)OP(=O)(O)OP(O)(O)=S)[C@@H](O)[C@H]2O)c(=O)[nH]1 [GTPγS] | – | – | – | – | – | – | – | – | – | – | GTPγS-binding rate of RHEB/S68P was enhanced compared with that of RHEB/WT and RHEB/P37L
